Where two headings read alike, the source gives them in different places.
How the values were obtained:
Assay type in all cases: biochemical
α-glucosidase = target: T1, α-glucosidase (Saccharomyces cerevisiae, UniProt P53341); assay: α-glucosidase inhibitory activity test in vitro
T1 construct: purchased Sigma Corporation G5003
Experimental: Add 25 μL α-glucosidase water solution (0.2 U/mL) and 175 μL phosphate buffer (50 mM, pH 7.0) into 25 μL different concentration of the above test solutions. The mixed solution is standed for 10 min at room temperature, and then 25 μL 4-nitrophenyl-α-D-glucopyranoside water solution (2.5 mM) is added into the mixed solution. After the solution is incubated at 37 °C for 30 min and centrifuged at 5000 rpm for 5 minutes, 150 uL supernatant is added into 96-well plates and the absorbance is detected at 405 nm.
Blank group: the test solution is replaced by 25 μL phosphate buffer (50 mM, pH 7.0); blank control group: the test solution is replaced by 25 μL phosphate buffer (50 mM, pH 7.0), meanwhile α-glucosidase water solution is replaced by 25 μL phosphate buffer (50 mM, pH 7.0); sample control group: α-glucosidase water solution is replaced by 25 μL phosphate buffer (50 mM, pH 7.0).
(§1) Repeat each of the above experiment groups for 3 times, and then average the results.
IC50=[CL(IH−50)+CH(50−IL)]/(IH−IL) CL: low concentration value; CH: high concentration value; IH: inhibition rate in high concentration; IL: inhibition rate in low concentration

HMG-CoA reductase = target: T2, HMG-CoA reductase (Homo sapiens, UniProt P04035); assay: HMG-CoA reductase inhibitory activity test in vitro
T2 sequence (P04035 426-888 limits assumed): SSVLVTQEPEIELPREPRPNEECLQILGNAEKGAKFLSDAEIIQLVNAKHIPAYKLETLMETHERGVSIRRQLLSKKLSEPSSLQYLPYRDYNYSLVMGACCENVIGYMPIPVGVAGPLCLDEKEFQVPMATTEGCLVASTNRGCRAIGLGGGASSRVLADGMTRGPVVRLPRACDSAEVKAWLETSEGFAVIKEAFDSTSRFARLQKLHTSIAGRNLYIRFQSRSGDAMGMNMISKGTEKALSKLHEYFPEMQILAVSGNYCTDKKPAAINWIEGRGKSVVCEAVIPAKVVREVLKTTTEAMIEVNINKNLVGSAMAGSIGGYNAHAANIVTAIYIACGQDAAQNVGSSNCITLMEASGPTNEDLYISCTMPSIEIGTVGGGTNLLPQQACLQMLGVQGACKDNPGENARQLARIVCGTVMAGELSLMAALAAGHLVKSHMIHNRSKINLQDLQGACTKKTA
Experimental: Add 25 μL HMG-CoA reductase water solution (0.2 U/mL), 25 μL NADPH water solution (0.2 U/mL) and 24 μL phosphate buffer (50 mM, pH 7.0) into 1 μL different concentration of the above test solution. The mixed solution is standed for 10 min at room temperature, and then 25 μL HMG-CoA is added into the mixed solution. After the solution is incubated at 37∞ for 30 min and centrifuged at 5000 rpm for 5 minutes, 80 uL supernatant is added into 96-well plates and the absorbance is detected at 550 nm.
as §1

[1] = target: T3, protein tyrosine phosphatase 1B (PTP-1B) (Homo sapiens, UniProt P18031); assay: PTP-1B inhibitory activity test in vitro
T3 sequence (P18031 1-435): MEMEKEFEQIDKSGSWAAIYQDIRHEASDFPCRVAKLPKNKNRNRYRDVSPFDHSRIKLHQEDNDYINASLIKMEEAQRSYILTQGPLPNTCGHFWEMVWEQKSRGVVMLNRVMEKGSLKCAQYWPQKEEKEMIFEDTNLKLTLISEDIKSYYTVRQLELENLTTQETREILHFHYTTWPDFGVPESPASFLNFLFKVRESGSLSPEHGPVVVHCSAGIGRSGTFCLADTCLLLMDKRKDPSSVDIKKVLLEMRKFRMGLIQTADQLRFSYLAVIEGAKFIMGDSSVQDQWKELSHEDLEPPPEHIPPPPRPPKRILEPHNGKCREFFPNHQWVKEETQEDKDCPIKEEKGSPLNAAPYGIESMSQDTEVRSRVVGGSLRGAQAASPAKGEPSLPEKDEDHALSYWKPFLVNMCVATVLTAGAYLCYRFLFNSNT
Experimental: Experimental procedure: the following reagents are added into 96-well plates in sequence and the mixture ratios of different groups are as followings: Test group: 50 μL compound solution+50 μL 170 μg/mL PTP-1B solution […] Blank group: 50 μL buffer solution+50 μL 170 μg/mL PTP-1B solution Background group: 50 μL compound solution+50 μL buffer solution After adding the reagents, the 96-well plate is […] for 10 min at room temperature to make the compound and the enzyme react completely. Add 50 μL 1 mM pNPP solution which is used as substrate and incubate the mixed solution at 37 °C for 30 min. Then add 50 μL 3M NaOH into each well of the plate to stop the reaction and the optical density is detected at […].

aldose reductase = aldose reductase (Homo sapiens, UniProt P15121); assay: aldose reductase inhibitory activity test in vitro
Experimental: Experimental procedure: the following reagents are added into 96-well plates in sequence and the mixture ratios of different groups are as followings:
Test group: 10 μL compound solution+25 μL (0.1 mM) NADPH solution+25 μL PBS buffer solution+15 μL aldose reductase diluent
Blank group: 25 μL (0.1 mM) NADPH solution+35 μL PBS buffer solution+15 μL aldose reductase diluent
Background group: 25 μL (0.1 mM) NADPH solution+60 μL PBS buffer solution+15 μL aldose reductase diluent
After adding the reagents, the 96-well plate is standed for 10 min at room temperature to make the compound and the enzyme react completely. Add 25 μL 10 mM D, L glyceraldehyde solution which is used as substrate into the groups except for background group, and incubate the solution at 37 °C for 30 min. Then detect the optical density of each well at 340 nm.

dipeptidyl peptidase-4 = target: T4, dipeptidyl peptidase-4 (Homo sapiens, UniProt P27487); assay: dipeptidyl peptidase-4 inhibitory activity test in vitro (DPP-4 inhibitor screening kit)
T4 construct: purchased
Source text: The above compounds are detected by DPP-4 inhibitor screening kit.

[2] = read-out: α-glucosidase inhibitory activity (IC50)

T4 sequence (P27487 whole entry, species assumed): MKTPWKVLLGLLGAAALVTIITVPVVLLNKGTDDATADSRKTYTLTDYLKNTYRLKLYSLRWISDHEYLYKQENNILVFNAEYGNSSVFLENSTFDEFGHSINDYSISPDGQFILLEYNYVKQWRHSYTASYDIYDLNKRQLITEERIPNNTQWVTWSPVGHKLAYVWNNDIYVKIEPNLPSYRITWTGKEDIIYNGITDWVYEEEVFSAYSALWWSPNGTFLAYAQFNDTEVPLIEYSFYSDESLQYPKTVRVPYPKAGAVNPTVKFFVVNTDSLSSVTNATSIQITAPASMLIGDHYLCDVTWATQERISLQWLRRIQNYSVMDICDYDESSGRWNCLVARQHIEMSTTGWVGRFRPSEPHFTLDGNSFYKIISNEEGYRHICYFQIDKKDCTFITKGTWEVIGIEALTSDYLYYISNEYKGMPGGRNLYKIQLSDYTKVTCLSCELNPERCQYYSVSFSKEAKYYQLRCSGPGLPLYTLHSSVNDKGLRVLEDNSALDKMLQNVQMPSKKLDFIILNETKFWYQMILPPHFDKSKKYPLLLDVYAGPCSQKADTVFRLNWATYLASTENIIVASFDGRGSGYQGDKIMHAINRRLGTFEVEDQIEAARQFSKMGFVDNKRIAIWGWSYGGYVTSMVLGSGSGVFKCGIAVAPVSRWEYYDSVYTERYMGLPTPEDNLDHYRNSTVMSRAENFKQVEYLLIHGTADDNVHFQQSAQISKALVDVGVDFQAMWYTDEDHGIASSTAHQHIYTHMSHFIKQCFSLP
T1 sequence (P53341 whole entry): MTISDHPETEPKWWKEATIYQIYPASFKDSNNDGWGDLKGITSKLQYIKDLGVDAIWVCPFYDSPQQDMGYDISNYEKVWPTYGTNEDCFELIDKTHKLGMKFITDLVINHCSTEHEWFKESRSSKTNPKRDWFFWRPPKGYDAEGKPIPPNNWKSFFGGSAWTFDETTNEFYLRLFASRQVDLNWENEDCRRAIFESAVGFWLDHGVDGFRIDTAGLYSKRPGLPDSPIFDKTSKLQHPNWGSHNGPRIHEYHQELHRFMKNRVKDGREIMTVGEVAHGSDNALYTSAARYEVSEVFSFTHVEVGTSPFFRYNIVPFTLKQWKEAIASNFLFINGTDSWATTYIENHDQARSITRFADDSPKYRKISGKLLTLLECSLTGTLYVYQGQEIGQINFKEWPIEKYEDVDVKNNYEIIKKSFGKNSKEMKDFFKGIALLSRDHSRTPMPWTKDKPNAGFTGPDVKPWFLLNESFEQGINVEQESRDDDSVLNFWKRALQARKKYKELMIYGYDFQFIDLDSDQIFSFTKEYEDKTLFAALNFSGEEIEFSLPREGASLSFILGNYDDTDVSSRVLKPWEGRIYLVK

Structure (SMILES) | IC50 (α-glucosidase; [2]) | IC50 (HMG-CoA reductase) | IC50 [1] | IC50 (aldose reductase) | IC50 (dipeptidyl peptidase-4) | IC50 (α-glucosidase)
C/C(=C\CC/C(C)=C/CC/C(=C/Cc1cc(O)ccc1O)C(=O)O)CO [S33, (2Z,5E,9E)-2-(2-(2,5-dihydroxyphenyl)ethylidene)-11-hydroxy-6,10-dimethylundeca-5,9-dienoic acid] |  | 32.9 µM | 4.5 µM | 23.1 µM | 18.7 µM | 12.2 µM
CC(C)=CCC/C(C)=C/CCC1=C[C@@H](c2cc(F)c(F)c(F)c2)OC1=O [S30, (S,E)-3-(4,8-dimethylnona-3,7-dien-1-yl)-5-(3,4,5-trifluorophenyl)furan-2(5H)-one] | 1.25 µM | 24.2 µM | 21.1 µM | 53.4 µM | 11.6 µM | 
CC(C)=CCC/C(C)=C/CC/C(=C/Cc1cc(O)ccc1O)C(=O)O [S34, (2Z,5E)-2-(2-(2,5-dihydroxyphenyl)ethylidene)-6,10-dimethylundeca-5,9-dienoic acid] | 0.98 µM | 12.6 µM | 12.9 µM | 8.7 µM | 15.2 µM | 
CC(C)=CCC/C(C)=C/CCC1=C[C@H](c2ccc3ccccc3c2)OC1=O [S2] | 7.4 µM | 49.8 µM | 13.1 µM | 19.8 µM | 12.5 µM | 
CC(C)=CCC/C(C)=C/CC/C(=C/C(=O)c1cc(O)ccc1O)C(=O)O [S32, (2Z,5E)-2-(2-(2,5-dihydroxyphenyl)-2-oxoethylidene)-6,10-dimethylundeca-5,9-dienoic acid] | 5.43 µM | 5.4 µM | 7.6 µM | 34.9 µM | 21.2 µM | 
CC(C)=CCCC1=C[C@H](c2cc(O)ccc2O)OC1=O [S37, (R)-5-(2,5-dihydroxyphenyl)-3-(4-methylpent-3-en-1-yl)furan-2(5H)-one] | 1.32 µM | 65.2 µM | 12.3 µM | 12.6 µM | 15.4 µM | 
CC(C)=CCC/C(C)=C/CCC1=C[C@H](c2ccc([N+](=O)[O-])cc2)OC1=O [S11, (R,E)-3-(4,8-dimethylnona-3,7-dien-1-yl)-5-(4-nitrophenyl)furan-2(5H)-one] | 34.2 µM | 7.4 µM | 8.1 µM | 4.9 µM | 10.2 µM | 

Second part, led by results:

IC50 (α-glucosidase; [2]) | IC50 (HMG-CoA reductase) | IC50 [1] | IC50 (aldose reductase) | IC50 (dipeptidyl peptidase-4) | Structure (SMILES) | IC50 (α-glucosidase)
15.3 µM | 4.4 µM | 12.3 µM | 25.2 µM | 8.6 µM | COc1ccc(OC)c([C@@H]2C=C(CC/C=C(\C)CCC=C(C)C)C(=O)O2)c1 [S27, (S,E)-5-(2,5-dimethoxyphenyl)-3-(4,8-dimethylnona-3,7-dien-1-yl)furan-2(5H)-one] | 
6.32 µM | 42.2 µM | 10.1 µM | 20.2 µM | 13.6 µM | CC(C)=CCC/C(C)=C/CCC1=C[C@@H](c2ccc3ccccc3c2)OC1=O [S17, (S,E)-3-(4,8-dimethylnona-3,7-dien-1-yl)-5-(naphthalen-2-yl)furan-2 (5H)-one] | 
0.16 µM | 16.4 µM | 15.8 µM | 1.4 µM | 19.1 µM | CC(C)=CCC/C(C)=C/CCC1=C[C@H](c2ccc(C(C)(C)C)cc2)OC1=O [S9, (R,E)-5-(4-(tert-butyl)phenyl)-3-(4,8-dimethylnona-3,7-dien-1-yl)furan-2 (5H)-one] | 
49.2 µM | 87.2 µM | 9.6 µM | 93.1 µM | 8.8 µM | CC(C)=CCC/C(C)=C/CCC1=C[C@@H](c2ccc(C(C)C)cc2)OC1=O [S23, (S,E)-3-(4,8-dimethylnona-3,7-dien-1-yl)-5-(4-isopropylphenyl)furan-2(5H)-one] | 
0.09 µM | 18.9 µM | 5.3 µM | 8.5 µM | 20.9 µM | CC(C)=CCC/C(C)=C/CCC1=C[C@H](c2ccccc2[N+](=O)[O-])OC1=O [S5, (R,E)-3-(4,8-dimethylnona-3,7-dien-1-yl)-5-(2-nitrophenyl)furan-2(5H)-one] | 
0.92 µM | 4.2 µM | 16.4 µM | 55.6 µM | 9.5 µM | CCc1ccc([C@@H]2C=C(CC/C=C(\C)CCC=C(C)C)C(=O)O2)cc1 [S22, (S,E)-3-(4,8-dimethylnona-3,7-dien-1-yl)-5-(4-ethylphenyl)furan-2(5H)-one] | 
0.52 µM | 5.5 µM | 11.5 µM | 25.4 µM | 20.2 µM | CC(C)=CCC/C(C)=C/CCC1=C[C@@H](c2ccccc2O)OC1=O [S19, (S,E)-3-(4,8-dimethylnona-3,7-dien-1-yl)-5-(2-hydroxyphenyl)furan-2(5H)-one] | 
8.65 µM | 8.9 µM | 7.8 µM | 38.3 µM | 14.5 µM | COCOc1ccccc1[C@H]1C=C(CC/C=C(\C)CCC=C(C)C)C(=O)O1 [S3] | 
0.21 µM | 4.7 µM | 11.1 µM | 23.5 µM | 21.2 µM | CC(C)=CCC/C(C)=C/CCC1=C[C@H](c2ccccc2O)OC1=O [S4, (R,E)-3-(4,8-dimethylnona-3,7-dien-1-yl)-5-(2-hydroxyphenyl)furan-2 (5-H)-one] | 
1.03 µM | 12.5 µM | 5.8 µM | 55.1 µM | 16.5 µM | CC(C)=CCC/C(C)=C/CCC1=C[C@@H](c2ccc(C)cc2)OC1=O [S21, (S,E)-3-(4,8-dimethylnona-3,7-dien-1-yl)-5-(p-tolyl)furan-2(5H)-one] | 
